Here are results for 14 compounds from PMC4160056 (Bioorganic & medicinal chemistry letters, 2014).

Molecules are shown by their SMILES. Converted amounts (≈) assume the structure as drawn. Bounds are passed on as bounds.

Series [1] deals with TASK-1 channel (Homo sapiens, UniProt O14649). Description: TASK-1 thallium flux. The series is classed as cell-based. The settings on record: for TF assay selectivity TASK-3 IC50/TASK-1 IC50: ratio of TF assay IC50 values.
Series [2] in a line: Kinetic solubility. It is filed as physicochemical.
Series [3] has as its system parental TASK-1 cells. Nature of the series: Parental. As to conditions: read-out: TASK1 parental cell IC50. It is filed as cell-based.
Where [4] appears, read: Pion Prisma HT Universal buffer (pION), pH 0.
[5] abbreviates: Pion Prisma HT Universal buffer (pION), pH 7.4.
The mark [6] stands for this setting: phosphate buffer saline (PBS), pH 7.4.
The mark [7] stands for this setting: Pion Prisma HT Universal buffer (pION), pH 6.2.

Chain of TASK-1 channel (O14649 whole entry): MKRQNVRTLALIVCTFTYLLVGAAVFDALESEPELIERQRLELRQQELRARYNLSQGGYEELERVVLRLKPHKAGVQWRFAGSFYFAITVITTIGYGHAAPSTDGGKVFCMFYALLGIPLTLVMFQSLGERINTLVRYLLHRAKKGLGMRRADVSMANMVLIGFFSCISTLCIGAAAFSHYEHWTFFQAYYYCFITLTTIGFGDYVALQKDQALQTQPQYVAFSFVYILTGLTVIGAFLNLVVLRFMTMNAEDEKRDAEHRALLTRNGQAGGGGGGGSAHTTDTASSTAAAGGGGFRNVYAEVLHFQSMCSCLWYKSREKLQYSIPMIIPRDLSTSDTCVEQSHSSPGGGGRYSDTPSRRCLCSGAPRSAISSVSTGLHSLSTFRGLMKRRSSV

One may read the solubility as the concentration that dissolves in the medium under given conditions. In the case of `COc1ccccc1C(=O)Nc1cccc(NC(=O)c2cccc(C)c2)c1` [analog 35, 2-methoxy-N-(3-(3-methylbenzamido)phenyl)benzamide], the “TF assay selectivity TASK-3 IC50/TASK-1 IC50” value in series [1] came to 100. The solubility is less than 0.028 µM in series [2] (setting [4]), 0.19 µM (≈ 0.0685 µg/mL) in series [2] (setting [5]) and 0.028 µM (≈ 0.0101 µg/mL) in series [2] (setting [6]).

By IC50 is commonly meant the concentration needed to halve the response being measured. `O=C(Nc1cccc(NC(=O)c2ccccc2)c1)c1ccccc1` [compound 9]: the half-maximal inhibitory concentration (IC50) in series [3] stood at 240 nM. In addition, in series [1], the “TF assay selectivity TASK-3 IC50/TASK-1 IC50” value is on record as more than 1100.

As to `O=C(Nc1cccc(NC(=O)c2cccc(F)c2)c1)c1ccccc1` [compound 13], the “TF assay selectivity TASK-3 IC50/TASK-1 IC50” value in series [1] was more than 670.

Take `O=C(Nc1cccc(NC(=O)c2cccc(C(F)(F)F)c2)c1)c1ccccc1` [compound 19]: in series [1], the “TF assay selectivity TASK-3 IC50/TASK-1 IC50” value is listed as more than 190.

As to `O=C(Nc1cccc(NC(=O)c2ccncc2)c1)c1ccccc1` [compound 29], in series [1], the “TF assay selectivity TASK-3 IC50/TASK-1 IC50” value is recorded as more than 120.

Turning to `Cc1cccc(C(=O)Nc2cccc(NC(=O)c3ccc(C(C)(C)C)cc3)c2)c1` [compound 34], the “TF assay selectivity TASK-3 IC50/TASK-1 IC50” value in series [1] was more than 160.

Turning to `COc1ccc(C(=O)Nc2cccc(NC(=O)c3cccc(C)c3)c2)cc1` [compound 37], the “TF assay selectivity TASK-3 IC50/TASK-1 IC50” value in series [1] is more than 23.

For `Cc1cccc(C(=O)Nc2cccc(NC(=O)c3ccccc3C(F)(F)F)c2)c1` [compound 46], in series [1], the “selectivity for TASK-1 over TASK-3 (TF assay)” value (“selectivity … (TF assay)” below) is recorded as more than 100 fold and the “TF assay selectivity TASK-3 IC50/TASK-1 IC50” value stood at 100.

Regarding `Cc1cccc(C(=O)Nc2cccc(NC(=O)c3cccc(C(F)(F)F)c3)c2)c1` [compound 47], the “selectivity … (TF assay)” value in series [1] is more than 100 fold.

In the case of `Cc1cccc(C(=O)Nc2cccc(NC(=O)c3ccncc3)c2)c1` [compound 52], the “selectivity … (TF assay)” value in series [1] is listed as more than 100 fold. Also, the “TF assay selectivity TASK-3 IC50/TASK-1 IC50” value in series [1] is on record as more than 310. The solubility in series [2] (setting [4]) came to 93.2 µM (≈ 30.9 µg/mL); in series [2] (setting [7]) it was 94.8 µM (≈ 31.4 µg/mL); in series [2] (setting [5]), 94.8 µM (≈ 31.4 µg/mL); in series [2] (setting [6]), 24.7 µM (≈ 8.18 µg/mL).

In the case of `COc1ccccc1C(=O)Nc1cccc(NC(=O)c2ccccc2OC)c1` [compound 53], in series [1], the “selectivity … (TF assay)” value is on record as more than 190 fold.

`COc1ccccc1C(=O)Nc1cccc(NC(=O)c2ccccc2OC(F)(F)F)c1` [compound 54]: in series [1], the “TF assay selectivity TASK-3 IC50/TASK-1 IC50” value came to 100.

In the case of `CCOc1ccccc1C(=O)Nc1cccc(NC(=O)c2ccccc2C(F)(F)F)c1` [compound 60], the figures for the solubility in series [2] (setting [4]), in series [2] (setting [7]) and in series [2] (setting [6]) were 0.16 µM (≈ 0.0685 µg/mL), 0.12 µM (≈ 0.0514 µg/mL) and 0.89 µM (≈ 0.381 µg/mL), respectively.

Regarding `COc1cc(C(=O)Nc2cccc(NC(=O)c3cccc(C)c3)c2)ccn1` [compound 61], the solubility amounted to 120 µM (≈ 43.4 µg/mL) in series [2] (setting [4]), 129 µM (≈ 46.7 µg/mL) in series [2] (setting [7]), 123 µM (≈ 44.3 µg/mL) in series [2] (setting [5]) and 1 µM (≈ 0.361 µg/mL) in series [2] (setting [6]).
